Assay results taken from BindingDB's records for doi:10.1016/S1074-5521(99)80084-2 (Institute of Genetics and Molecular and Cellular Biology …, 1999).

Columns and labels:
[1] = molecular target: T1, Retinoic acid receptor alpha [200-419] (Homo sapiens, UniProt P10276); assay: Competitive Assay; conditions: pH 8; 4 °C
T1 construct: 200-419
T1 sequence (P10276 whole entry): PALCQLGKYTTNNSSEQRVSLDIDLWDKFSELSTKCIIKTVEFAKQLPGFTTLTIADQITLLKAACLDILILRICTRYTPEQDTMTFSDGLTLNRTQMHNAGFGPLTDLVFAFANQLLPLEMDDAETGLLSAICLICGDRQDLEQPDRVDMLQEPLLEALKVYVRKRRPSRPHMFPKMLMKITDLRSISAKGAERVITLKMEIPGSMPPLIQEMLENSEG
Description: (§1) Competitive assay were perform with 5nM tritiated all-trans retinoic acid (t-RA; 5nM) with or without 100-fold excess of non-radioactive t-RA (500nM).

[2] = molecular target: T2, Retinoic acid receptor alpha [200-419]/gamma [183-417] (Homo sapiens, UniProt P10276+P13631); assay: Competitive Assay; conditions: pH 8; 4 °C
T2 construct: 200-419; 183-417
T2 sequence (P13631 whole entry): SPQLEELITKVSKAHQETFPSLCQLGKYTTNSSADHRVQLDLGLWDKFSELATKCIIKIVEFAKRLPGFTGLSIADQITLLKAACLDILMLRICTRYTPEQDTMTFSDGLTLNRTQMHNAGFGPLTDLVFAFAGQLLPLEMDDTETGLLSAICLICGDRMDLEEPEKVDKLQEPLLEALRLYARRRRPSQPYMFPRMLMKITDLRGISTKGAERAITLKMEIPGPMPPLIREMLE
T2 sequence (P10276 whole entry): T1 sequence (P10276 whole entry)
Description: as §1

| Ki [1] | Ki [2] | Structure (SMILES) |
| --- | --- | --- |
| 2.5 nM | 1 nM | CC1(C)CC=C(c2cnc3ccccc3c2)c2cc(C(=O)Nc3ccc(C(=O)O)cc3)ccc21 [BMS614] |
| 2 nM | 1 nM | CC1(C)C(=O)C(C)(C)c2cc(C(=O)Nc3ccc(C(=O)O)cc3)ccc21 [BMS753] |
